# Counter-ions that a name gives are not always drawn. Like-named read-outs stand apart in the source and are kept apart here. Where a SMILES comes first, the peptide text is derived from it. [ ]: non-standard residue; d: D form. pGlu = O=C1CC[C@@H](C(=O)O)N1; Thz = O=C(O)[C@@H]1CSCN1
# Test system: NRG1-ERBB4 signaling
# Experiment: Nrg1-ERBB4-PIK3R1 split TEV co-culture compound screen of the NIH Clinical Collection
# Type: cell-based, human
# [1] = compound screen of the NIH Clinical Collection, sheet raw data NCC-003, compounds ranked by Z-score
# [2] = compounds at 10 μM, 24 h, PC12 split TEV assay cells co-cultured with Nrg1-expressing PC12 cells, analysed with cellHTS2
# [3] = NIH Clinical Collection NCC-003 raw data, compounds ranked by Z-score, 'flagged' given instead of a Z-score
Compound,Z-SCORE [1],Z-SCORE [2],also measured
COc1ccccc1N1CCN(CC(O)COc2cccc3ccccc23)CC1 (stereo not shown) [NAFTOPIDIL],0.24,–,–
"C=CCN1CC[C@]23c4c5ccc(O)c4O[C@H]2C(=O)CC[C@@]3(O)[C@H]1C5 [NALOXONE HYDROCHLORIDE, reference compound]",–,-0.39,–
"O=C1CC[C@@]2(O)[C@H]3Cc4ccc(O)c5c4[C@@]2(CCN3CC2CC2)[C@H]1O5 [NALTREXONE HYDROCHLORIDE, reference compound]",–,0.59,–
COc1ccc2cc([C@H](C)C(=O)O)ccc2c1 [NAPROXEN SODIUM],0.35,–,–
CC(C)[C@H]1CC[C@H](C(=O)N[C@H](Cc2ccccc2)C(=O)O)CC1 [NATEGLINIDE],-0.03,–,–
Cc1c(O)cccc1C(=O)N[C@@H](CSc1ccccc1)[C@H](O)CN1C[C@H]2CCCC[C@H]2C[C@H]1C(=O)NC(C)(C)C [NELFINAVIR MESYLATE],0.24,–,–
O=C(CCNNC(=O)c1ccncc1)NCc1ccccc1 [NIALAMIDE],1.7,–,–
O=C(NCCO[N+](=O)[O-])c1cccnc1 [NICORANDIL],-0.09,–,–
NC(=O)c1cccnc1 [NICOTINAMIDE],2.52,–,–
"CN1CCC[C@H]1c1cccnc1 [NICOTINE, reference compound]",–,-0.12,–
COC(=O)C1=C(C)NC(C)=C(C(=O)OC)C1c1ccccc1[N+](=O)[O-] [NIFEDIPINE],2.68,–,–
Cl.Cn1c(NCCN(CCO)CCCc2ccc([N+](=O)[O-])cc2)cc(=O)n(C)c1=O [NIFEKALANT HCl],1.92,–,–
COCCOC(=O)C1=C(C)NC(C)=C(C(=O)OC(C)C)C1c1cccc([N+](=O)[O-])c1 (stereo not shown) [NIMODIPINE],-0.83,–,–
COC(=O)C1=C(C)NC(C)=C(C(=O)OCC(C)C)C1c1ccccc1[N+](=O)[O-] (stereo not shown) [NISOLDIPINE],2.32,–,–
CC(=O)Oc1ccccc1C(=O)Nc1ncc([N+](=O)[O-])s1 [NITAZOXANIDE],1.04,–,–
CCOC(=O)C1=C(C)NC(C)=C(C(=O)OC)C1c1cccc([N+](=O)[O-])c1 (stereo not shown) [NITRENDIPINE],–,–,Z-SCORE [3]: -1.82
"O=C1CN(/N=C/c2ccc([N+](=O)[O-])o2)C(=O)N1 [NITROFURANTOIN, reference compound]",–,-0.02,–
CNC(=C[N+](=O)[O-])NCCSCc1csc(CN(C)C)n1 [NIZATIDINE],-0.53,–,–
"CCn1cc(C(=O)O)c(=O)c2cc(F)c(N3CCNCC3)cc21 [NORFLOXACIN, reference compound]",–,-0.08,–
"N[C@H](Cc1cc(I)c(Oc2ccc(O)c(I)c2)c(I)c1)C(=O)O [NSC46046, reference compound]",–,-1.87,–
CCCCN1CCCC1CNC(=O)c1cc(C#N)c2ccccc2c1OC (stereo not shown) [Nafadotride],-0.24,–,–
Oc1ccc2c3c1O[C@H]1[C@@H](O)CC[C@@]4(O)[C@@H](C2)N(CC2CCC2)CC[C@]314 [Nalbuphine],–,–,Z-SCORE: -1.86
"CCn1cc(C(=O)O)c(=O)c2ccc(C)nc21 [Nalidixic Acid, reference compound]",–,0.31,–
Oc1ccc2c3c1O[C@H]1c4[nH]c5ccccc5c4C[C@@]4(O)[C@@H](C2)N(CC2CC2)CC[C@]314 [Naltrindole],-0.41,–,–
CCc1nn(CCCN2CCN(c3cccc(Cl)c3)CC2)c(=O)n1CCOc1ccccc1 [Nefazodone],-0.63,–,–
"O=C(O)c1cccnc1 [Nicotinic Acid, reference compound]",–,-0.31,–

Compound,Z-SCORE [1],Z-SCORE [2],also measured
CN1C(=O)CN=C(c2ccccc2)c2cc([N+](=O)[O-])ccc21 [Nimetazepam],0.16,–,–
O=C1CN=C(c2ccccc2)c2cc([N+](=O)[O-])ccc2N1 [Nitrazepam],-0.23,–,–
COc1ccc(-c2cc(=O)c3c(OC)c(OC)c(OC)c(OC)c3o2)cc1OC [Nobiletin],-0.05,–,–
"Cc1ccccc1C(OCCN(C)C)c1ccccc1 (stereo not shown) [Norflex, reference compound]",–,0.74,–
c1cncc([C@@H]2CCCN2)c1 [Nornicotine],0.27,–,–
"CC(C)N(CCC(C(N)=O)(c1ccccc1)c1ccccn1)C(C)C (stereo not shown) [Norpace, reference compound]",–,0.73,–
"CNCCCN1c2ccccc2CCc2ccccc21 [Norpramin, reference compound]",–,-3.45,–
"CCN(CC)CCOC(=O)c1ccc(N)cc1 [Novocain, reference compound]",–,-0.44,–
"CC1COc2c(N3CCN(C)CC3)c(F)cc3c(=O)c(C(=O)O)cn1c23 (stereo not shown) [OFLOXACIN, reference compound]",–,0.8,–
Cc1cc2c(s1)Nc1ccccc1N=C2N1CCN(C)CC1 [OLANZAPINE],-0.89,–,–
CCCc1nc(C(C)(C)O)c(C(=O)OCc2oc(=O)oc2C)n1Cc1ccc(-c2ccccc2-c2nnn[nH]2)cc1 [OLMESARTAN MEDOXOMIL],0.84,–,–
CN(C)CC/C=C1/c2ccccc2COc2ccc(CC(=O)O)cc21 [OLOPATADINE HCl],0.55,–,–
COc1ccc2[nH]c([S+]([O-])Cc3ncc(C)c(OC)c3C)nc2c1 (stereo not shown) [OMEPRAZOLE],-0.26,–,–
Cc1nccn1CC1CCc2c(c3ccccc3n2C)C1=O.Cl (stereo not shown) [ONDANSETRON HYDROCHLORIDE],0.51,–,–
CCCCCCCCCCC[C@@H](C[C@@H]1OC(=O)[C@H]1CCCCCC)OC(=O)[C@H](CC(C)C)NC=O [ORLISTAT],0.19,–,–
COc1cc(C)c(Cc2cnc(N)nc2N)cc1OC [ORMETOPRIM],1.63,–,–
Cc1ncc([N+](=O)[O-])n1CC(O)CCl (stereo not shown) [ORNIDAZOLE],2.22,–,–
O=C(O)CCc1nc(-c2ccccc2)c(-c2ccccc2)o1 [OXAPROZIN],0.6,–,–
Clc1ccc(CO/N=C(\Cn2ccnc2)c2ccc(Cl)cc2Cl)c(Cl)c1 [OXICONAZOLE NITRATE],–,–,Z-SCORE [3]: -1.71
"CCN(CC)CC#CCOC(=O)C(O)(c1ccccc1)C1CCCCC1 (stereo not shown) [OXYBUTYNIN CHLORIDE, reference compound]",–,-0.59,–
CC[N+](C)(CC)CCOC(=O)C(O)(c1ccccc1)C1CCCCC1 (stereo not shown) [OXYPHENONIUM BROMIDE],-0.45,–,–
"Cc1nccn1CC1CCc2c(c3ccccc3n2C)C1=O (stereo not shown) [Ondansetron, reference compound]",–,0.12,–
C[C@]12C/C(=C/O)C(=O)C[C@@H]1CC[C@@H]1[C@@H]2CC[C@@]2(C)[C@H]1CC[C@]2(C)O [Oxymetholone],1.79,–,–
"CN(C)[C@@H]1C(O)=C(C(N)=O)C(=O)[C@@]2(O)C(O)=C3C(=O)c4c(O)cccc4[C@@](C)(O)[C@H]3[C@H](O)[C@@H]12 [Oxytetracycline hydrochloride, reference compound]",–,0.67,–
Cl.O=C(O)/C=C/c1ccc(Cn2ccnc2)cc1 [Ozagrel hydrochloride],0.36,–,–
O=C1c2cccc3c2[C@H](CCC3)CN1[C@@H]1CN2CCC1CC2 [PALONOSETRON HCl],0.77,–,–

Compound,Z-SCORE [1],Z-SCORE [2],also measured
COc1ccnc(C[S+]([O-])c2nc3cc(OC(F)F)ccc3[n-]2)c1OC.[Na+] (stereo not shown) [PANTOPRAZOLE SODIUM SALT],1.42,–,–
CCC(=O)[N-]S(=O)(=O)c1ccc(-c2c(-c3ccccc3)noc2C)cc1.[Na+] [PARECOXIB Na],-0.3,–,–
C[C@H]1COc2c(C3(N)CC3)c(F)cc3c(=O)c(C(=O)O)cn1c23 [PAZUFLOXACIN],-0.48,–,–
Cc1sc(N)c(C(=O)c2cccc(C(F)(F)F)c2)c1C [PD 81723],0.13,–,–
Nc1nc2c(ncn2CCC(CO)CO)c(=O)[nH]1 [PENCICLOVIR],-0.01,–,–
CCCN1C[C@H](CSC)C[C@@H]2c3cccc4[nH]cc(c34)C[C@H]21 [PERGOLIDE MESYLATE],-0.4,–,–
Cl.O=C1[C@H]2CCCC[C@H]2C(=O)N1CCCCN1CCN(c2nsc3ccccc23)CC1 [PEROSPIRONE HCl],–,–,Z-SCORE [3]: -1.42
"OCCN1CCN(CCCN2c3ccccc3Sc3ccc(Cl)cc32)CC1 [PERPHENAZINE, reference compound]",–,0.23,–
c1ccc2c(c1)Nc1ccccc1S2 [PHENOTHIAZINE],-0.03,–,–
NC(=O)OCCCc1ccccc1 [PHENPROBAMATE],-0.62,–,–
"Cc1ccc(N(CC2=NCCN2)c2cccc(O)c2)cc1 [PHENTOLAMINE HCL, reference compound]",–,-1.17,–
OC[C@H]1O[C@@H](Oc2cc(O)cc(/C=C/c3ccc(O)cc3)c2)[C@H](O)[C@@H](O)[C@@H]1O [PICEID],0.85,–,–
O=C1CC[C@@H](C(=O)N2CSC[C@H]2C(=O)O)N1 [PIDOTIMOD] ([pGlu]-[Thz]-OH),–,–,Z-SCORE [3]: -1.2
CC[C@@H]1C(=O)OC[C@@H]1Cc1cncn1C [PILOCARPINE HYDROCHLORIDE],-0.77,–,–
"CC(C)NCC(O)COc1cccc2[nH]ccc12 (stereo not shown) [PINDOLOL, reference compound]",–,6.52,–
CCc1ccc(CCOc2ccc(CC3SC(=O)NC3=O)cc2)nc1 (stereo not shown) [PIOGLITAZONE HCl],-0.64,–,–
"CCN1CCN(C(=O)N[C@@H](C(=O)N[C@@H]2C(=O)N3[C@@H]2SC(C)(C)[C@@H]3C(=O)O)c2ccccc2)C(=O)C1=O [PIPERACILLIN SODIUM SALT, reference compound]",–,0.05,–
Cc1nc2ccccn2c(=O)c1CCN1CCC(C(=O)c2ccc(F)cc2)CC1 [PIRENPERONE],1.82,–,–
CCCN[C@H]1CCc2nc(N)sc2C1.Cl [PRAMIPEXOLE HCl],-0.74,–,–
CC[C@H](C)C(=O)O[C@H]1C[C@H](O)C=C2C=C[C@H](C)[C@H](CC[C@@H](O)C[C@@H](O)CC(=O)O)[C@H]21 [PRAVASTATIN Sodium],-0.44,–,–
"O=C(C1CCCCC1)N1CC(=O)N2CCc3ccccc3C2C1 (stereo not shown) [PRAZIQUANTEL, reference compound]",–,0.38,–
"CC(=O)OCC(=O)[C@@]1(O)CC[C@H]2[C@@H]3CCC4=CC(=O)C=C[C@]4(C)[C@H]3[C@@H](O)C[C@@]21C [PREDNISOLONE ACETATE, reference compound]",–,-0.58,–
"CCCNC(C)C(=O)Nc1ccccc1C (stereo not shown) [PRILOCAINE HYDROCHLORIDE, reference compound]",–,0.68,–
CNNCc1ccc(C(=O)NC(C)C)cc1 [PROCARBAZINE HYDROCHLORIDE],0.52,–,–
